Data: paper PMC7792585, “Trospium Chloride Transport by Mouse Drug Carriers of the Slc22 and Slc47 Families” (International Journal of Molecular Sciences, 2020)

Legend:
[1] = target: T1, mMate2 (Mus musculus, UniProt Q3V050); assay: inhibition of [3H]MPP+ uptake in mMate2-HEK293 cells at […]; assay type: cell-based
T1 construct: gene Slc47a2; full open reading frame
T1 sequence (Q3V050 1-573): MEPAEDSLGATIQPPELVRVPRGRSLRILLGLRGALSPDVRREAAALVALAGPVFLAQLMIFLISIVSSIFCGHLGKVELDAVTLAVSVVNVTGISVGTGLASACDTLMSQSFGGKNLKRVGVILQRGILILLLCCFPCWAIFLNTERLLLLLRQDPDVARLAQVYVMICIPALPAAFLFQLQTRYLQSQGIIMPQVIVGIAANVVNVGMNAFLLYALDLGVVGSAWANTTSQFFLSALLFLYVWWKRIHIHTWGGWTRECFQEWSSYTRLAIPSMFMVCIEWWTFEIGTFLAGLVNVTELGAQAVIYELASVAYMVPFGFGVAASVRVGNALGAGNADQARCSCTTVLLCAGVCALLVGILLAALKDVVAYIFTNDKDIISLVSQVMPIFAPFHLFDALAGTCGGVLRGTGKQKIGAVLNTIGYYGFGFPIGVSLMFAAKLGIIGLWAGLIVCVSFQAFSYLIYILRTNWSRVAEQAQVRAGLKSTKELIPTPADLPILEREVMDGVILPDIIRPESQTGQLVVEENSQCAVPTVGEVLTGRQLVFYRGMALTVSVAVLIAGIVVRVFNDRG

[2] = substrate: C[n+]1ccc(-c2ccccc2)cc1; assay: cells, lysate or membranes
[3] = substrate: O=C(O[C@H]1C[C@H]2CC[C@@H](C1)[N+]21CCCC1)C(O)(c1ccccc1)c1ccccc1; assay: [3H]trospium uptake in stably transfected HEK293 cells, Michaelis-Menten (Km); assay type: cell-based, Mus musculus

Nc1nc2c(ncn2COCCO)c(=O)[nH]1 [acyclovir]
inhibition of [3H]MPP+ uptake in mMate2-HEK293 cells at 10 and 100 μM [1]: mMate2 was significantly inhibited by tetraethylammonium (TEA), topotecan, acyclovir, and levofloxacin

C[C@H]1COc2c(N3CCN(C)CC3)c(F)cc3c(=O)c(C(=O)O)cn1c23 [levofloxacin]
inhibition of [3H]MPP+ uptake in mMate2-HEK293 cells at 10 and 100 μM [1]: mMate2 was significantly inhibited by tetraethylammonium (TEA), topotecan, acyclovir, and levofloxacin

CC[N+](CC)(CC)CC [tetraethylammonium]
inhibition of [3H]MPP+ uptake in mMate2-HEK293 cells at 10 and 100 μM [1]: mMate2 was significantly inhibited by tetraethylammonium (TEA), topotecan, acyclovir, and levofloxacin

CC[C@@]1(O)C(=O)OCc2c1cc1n(c2=O)Cc2cc3c(CN(C)C)c(O)ccc3nc2-1 [topotecan]
inhibition of [3H]MPP+ uptake in mMate2-HEK293 cells at 10 and 100 μM [1]: mMate2 was significantly inhibited by tetraethylammonium (TEA), topotecan, acyclovir, and levofloxacin

B1: mMate2 (Mus musculus) (protein)
chain: MEPAEDSLGATIQPPELVRVPRGRSLRILLGLRGALSPDVRREAAALVALAGPVFLAQLMIFLISIVSSIFCGHLGKVELDAVTLAVSVVNVTGISVGTGLASACDTLMSQSFGGKNLKRVGVILQRGILILLLCCFPCWAIFLNTERLLLLLRQDPDVARLAQVYVMICIPALPAAFLFQLQTRYLQSQGIIMPQVIVGIAANVVNVGMNAFLLYALDLGVVGSAWANTTSQFFLSALLFLYVWWKRIHIHTWGGWTRECFQEWSSYTRLAIPSMFMVCIEWWTFEIGTFLAGLVNVTELGAQAVIYELASVAYMVPFGFGVAASVRVGNALGAGNADQARCSCTTVLLCAGVCALLVGILLAALKDVVAYIFTNDKDIISLVSQVMPIFAPFHLFDALAGTCGGVLRGTGKQKIGAVLNTIGYYGFGFPIGVSLMFAAKLGIIGLWAGLIVCVSFQAFSYLIYILRTNWSRVAEQAQVRAGLKSTKELIPTPADLPILEREVMDGVILPDIIRPESQTGQLVVEENSQCAVPTVGEVLTGRQLVFYRGMALTVSVAVLIAGIVVRVFNDRG
Km [2]: 60.0 ± 5.6 µM

B2: mOct2 (Mus musculus) (protein)
chain: MPTVDDILEHIGEFHLFQKQTFFLLALLSGAFTPIYVGIVFLGFTPNHHCRSPGVAELSQRCGWSPAEELNYTVPGLGSAGEVSFLSQCMRYEVDWNQSTLDCVDPLSSLAANRSHLPLSPCEHGWVYDTPGSSIVTEFNLVCAHSWMLDLFQSLVNVGFFIGAVGIGYLADRFGRKFCLLVTILINAISGVLMAISPNYAWMLVFRFLQGLVSKAGWLIGYILITEFVGLGYRRTVGICYQIAFTVGLLILAGVAYALPNWRWLQFAVTLPNFCFLLYFWCIPESPRWLISQNKNAKAMKIIKHIAKKNGKSVPVSLQSLTADEDTGMKLNPSFLDLVRTPQIRKHTLILMYNWFTSSVLYQGLIMHMGLAGDNIYLDFFYSALVEFPAAFIIILTIDRIGRRYPWAVSNMVAGAACLASVFIPDDLQWLKITVACLGRMGITIAYEMVCLVNAELYPTYIRNLAVLVCSSMCDIGGIVTPFLVYRLTDIWLEFPLVVFAVVGLVAGGLVLLLPETKGKALPETIEDAEKMQRPRKKKEKRIYLQVKKAELS
notes: full open reading frame
Km [3]: 78.5 ± 25.9 µM

B3: mOct1 (Mus musculus) (protein)
chain: MPTVDDVLEHVGEFGWFQKQAFLLLCLISASLAPIYVGIVFLGFTPDHHCRSPGVAELSQRCGWSPAEELNYTVPGLGSAGEASFLSQCMKYEVDWNQSTLDCVDPLSSLAANRSHLPLSPCEHGWVYDTPGSSIVTEFNLVCGDAWKVDLFQSCVNLGFFLGSLVVGYIADRFGRKLCLLVTTLVTSLSGVLTAVAPDYTSMLLFRLLQGMVSKGSWVSGYTLITEFVGSGYRRTTAILYQVAFTVGLVGLAGVAYAIPDWRWLQLAVSLPTFLFLLYYWFVPESPRWLLSQKRTTQAVRIMEQIAQKNRKVPPADLKMMCLEEDASERRSPSFADLFRTPSLRKHTLILMYLWFSCAVLYQGLIMHVGATGANLYLDFFYSSLVEFPAAFIILVTIDRIGRIYPIAASNLVAGAACLLMIFIPHELHWLNVTLACLGRMGATIVLQMVCLVNAELYPTFIRNLGMMVCSALCDLGGIFTPFMVFRLMEVWQALPLILFGVLGLSAGAVTLLLPETKGVALPETIEEAENLGRRKSKAKENTIYLQVQTGKSPHT
notes: full open reading frame
Km [3]: 58.7 ± 15.5 µM

B4: mMate1 (Mus musculus) (protein)
chain: MERTEESAPGPGGADAASERRGLRCLLLPGFLEELRALLVLAGPAFLAQLMMFLISFISSVFCGHLGKLELDAVTLAIAVINVTGISVGHGLSSACDTLISQTYGSQNLKHVGVILQRGTLILLLCCFPCWALFINTEQILLLFRQDPDVSRLTQTYVMIFIPALPAAFLYTLQVKYLLNQGIVLPQIMTGIAANLVNALANYVFLYHLHLGVMGSALANTISQFALAIFLFLYILWRRLHQATWGGWSWECLQDWASFLRLAIPSMLMLCIEWWAYEVGSFLSGILGMVELGAQSITYELAIIVYMIPSGFSVAANVRVGNALGAGNIDQAKKSSAISLIVTELFAVTFCVLLLGCKDLVGYIFTTDRDIVALVAQVIPIYAVSHLFEGLACTCGGILRGTGNQKVGAIVNAIGYYVIGLPIGIALMFAAKLGVIGLWSGIIICTTCQTTCFLAFIARLNWKRACQQAQVHANLKVNVALNSAVSHEPAHPVCPESHGEIMMTDLEKKDETQLDQPMNQQQALPIRPKDSNKLSGKQLALRRGLLLLGVVLVLVGGILVRVYIRIE
notes: full open reading frame
Km [3]: 29.3 ± 6.7 µM
